Among the test systems are SF-295 CNS; MALME-3M melanoma; HT29 colon; M14 melanoma; LOX IMVI melanoma; HCT-15 colon; SR leukemia; PC-3 prostate; SK-MEL-5 melanoma; HCT-116 colon.
What all share (assay): NCI-60 cell line screen, 48 h

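Where inhibition never reached the appropriate level, the endpoint shown equals the highest concentration tested. Otherwise, values were interpolated linearly from a five-concentration, 48-hour dose response in 96-well plates. TGI denotes the concentration required for complete inhibition of growth.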

Turning to `CC(C(=O)NCCNC(=O)CCC(=O)N(C)O)C(=O)NCCNC(=O)CCC(=O)N(C)O`, the TGI with SF-295 CNS, in the assay on MALME-3M melanoma, in the assay with HT29 colon, in the assay on M14 melanoma, in the assay on LOX IMVI melanoma and with HCT-15 colon was over 100 µM in each case. Further, the TGI with SR leukemia, in the assay with PC-3 prostate and in the assay with SK-MEL-5 melanoma was over 100 µM in each case.

With `CC(C)(C)c1cc(C(=O)C2Cc3ccccc3C(=O)O2)cc(C(C)(C)C)c1O` (stereo not given), the TGI with SF-295 CNS came out at 35.1 µM; in the assay with MALME-3M melanoma, 29.6 µM; in the assay with HT29 colon it was 35.5 µM; in the assay with M14 melanoma, 25.6 µM; with HCT-116 colon, 21.9 µM; with LOX IMVI melanoma it was 26.5 µM. Also, the TGI with HCT-15 colon was found to be 37 µM; with SR leukemia it was 51.2 µM; in the assay with PC-3 prostate it was 28.2 µM; in the assay on SK-MEL-5 melanoma, 25.1 µM.

With `Nc1ncnc2c1ncn2C1OC(CO)C(O)C1NS(=O)(=O)c1ccccc1` (stereo not given), the TGI in the assay with SF-295 CNS, in the assay with MALME-3M melanoma, with HT29 colon, in the assay with M14 melanoma, in the assay on HCT-116 colon and in the assay with LOX IMVI melanoma was over 100 µM throughout. The TGI in the assay on HCT-15 colon, with SR leukemia, in the assay on PC-3 prostate and in the assay on SK-MEL-5 melanoma was over 100 µM each time.

With `COc1ccc(C(=O)c2c(-c3ccccc3NC(=O)C(F)(F)F)[nH]c3ccccc23)cc1`, the TGI came to 25.5 µM with SF-295 CNS; 30.5 µM with MALME-3M melanoma; 16.5 µM in the assay with HT29 colon; 32.6 µM in the assay on M14 melanoma; 25.5 µM with HCT-116 colon; 16.1 µM in the assay on LOX IMVI melanoma. In addition, the TGI was 19.9 µM with HCT-15 colon, 8.62 µM in the assay with SR leukemia, 17.3 µM in the assay on PC-3 prostate and 22 µM with SK-MEL-5 melanoma.

With `N/C(=N\S(=O)(=O)c1ccc(-c2ccccn2)s1)Nc1ccc(Cl)cc1`, the TGI amounted to 40.3 µM with SF-295 CNS; 33.4 µM in the assay on MALME-3M melanoma; 35.2 µM in the assay on HT29 colon; 33.6 µM in the assay on M14 melanoma; 31 µM in the assay with HCT-116 colon; 33.5 µM in the assay on LOX IMVI melanoma. In addition, the TGI in the assay on HCT-15 colon was 38 µM; with SR leukemia it was 53.1 µM; in the assay on PC-3 prostate it was 27.3 µM; with SK-MEL-5 melanoma it was 30.6 µM.

For `CCNC(=O)NNc1ncnc2c1c(-c1ccc(Cl)cc1)cn2-c1ccc(C)cc1`, the TGI is 30.5 µM in the assay with SF-295 CNS; 35.5 µM in the assay with MALME-3M melanoma; 34 µM in the assay on HT29 colon; 32.3 µM in the assay with M14 melanoma; 28.1 µM with HCT-116 colon; 36.4 µM in the assay on LOX IMVI melanoma. Further, the TGI worked out at 47.8 µM in the assay with HCT-15 colon, 43.3 µM in the assay on SR leukemia, 38.6 µM in the assay on PC-3 prostate and 28 µM in the assay with SK-MEL-5 melanoma.

Take `CC(=O)NNC(=S)/N=C\c1c(O)c2ccccc2oc1=O`: the TGI in the assay on SF-295 CNS, with MALME-3M melanoma, in the assay on HT29 colon, in the assay with M14 melanoma, in the assay on HCT-116 colon and in the assay with LOX IMVI melanoma was over 100 µM in each case. Moreover, the TGI with HCT-15 colon, with SR leukemia, with PC-3 prostate and in the assay with SK-MEL-5 melanoma was over 100 µM in each case.

For `Oc1cc(O)c2c(c1)O[C@H](c1cc(O)c(O)c(O)c1)[C@@H](O)C2`, the TGI in the assay on SF-295 CNS was 73.2 µM; in the assay with MALME-3M melanoma it was over 100 µM; in the assay with M14 melanoma it was 57.6 µM; in the assay with HCT-116 colon it was 33.2 µM; in the assay on LOX IMVI melanoma, 37.9 µM; in the assay with HCT-15 colon, over 100 µM. For the same molecule, the values for the TGI in the assay with SR leukemia, in the assay with PC-3 prostate and in the assay on SK-MEL-5 melanoma were 39.1 µM, 76.2 µM and 60.2 µM, respectively.

Turning to `Oc1cc(Cl)cc2cc(Cl)cnc12`, the TGI in the assay on SF-295 CNS was 88.7 µM; with MALME-3M melanoma, 34.9 µM; in the assay with HT29 colon, over 100 µM; in the assay on M14 melanoma, over 100 µM; in the assay on HCT-116 colon, over 100 µM; with LOX IMVI melanoma, 13.1 µM. Besides, the TGI is 27.3 µM with HCT-15 colon, 13.6 µM in the assay with SR leukemia, over 100 µM in the assay on PC-3 prostate and 53.3 µM in the assay on SK-MEL-5 melanoma.

As for `O=C(/C=C/c1ccc2c(c1)OCO2)NCCc1ccco1`, the TGI in the assay with SF-295 CNS, in the assay with MALME-3M melanoma, in the assay on HT29 colon, in the assay on M14 melanoma, in the assay on HCT-116 colon and in the assay with LOX IMVI melanoma was over 100 µM in each case. The TGI in the assay on SR leukemia, in the assay on PC-3 prostate and in the assay with SK-MEL-5 melanoma was over 100 µM each time.

Take `C=C1C(=O)[C@]23C[C@H]1C[C@@H](O)[C@H]2[C@]1(COC3=O)[C@@H](OC(C)=O)CC[C@@](C)(COC(C)=O)[C@H]1C=O`: the TGI in the assay on SF-295 CNS is over 50 µM; with MALME-3M melanoma, 27 µM; with HT29 colon it was over 50 µM; in the assay on HCT-116 colon, over 50 µM; in the assay with LOX IMVI melanoma it was over 50 µM; in the assay on HCT-15 colon, over 50 µM. The TGI in the assay with SR leukemia, in the assay with PC-3 prostate and with SK-MEL-5 melanoma was over 50 µM in each case.

With `N#CCCN(CCC#N)c1ccc(/C=C2\SC(=S)NC2=O)cc1`, the TGI in the assay with SF-295 CNS, in the assay on MALME-3M melanoma, with HT29 colon, in the assay on M14 melanoma, with HCT-116 colon and with LOX IMVI melanoma was over 100 µM throughout. Besides, the TGI in the assay on HCT-15 colon, in the assay on SR leukemia, in the assay with PC-3 prostate and with SK-MEL-5 melanoma was over 100 µM each time.

As to `Cn1c(=O)c2c(nc3n2CCC(=O)N3CCCCl)n(C)c1=O`, the TGI in the assay with SF-295 CNS, in the assay with HT29 colon, in the assay on M14 melanoma, in the assay on HCT-116 colon, with LOX IMVI melanoma and in the assay on HCT-15 colon was over 100 µM throughout. The TGI in the assay on SR leukemia, in the assay on PC-3 prostate and with SK-MEL-5 melanoma was over 100 µM throughout.

As to `CCCCC(=C=C(C)CO)C1CCCN1C(=O)OC(C)(C)C` (stereo not given), the TGI came to 31.7 µM in the assay with SF-295 CNS; 28.2 µM with MALME-3M melanoma; 34.3 µM with HT29 colon; 35.4 µM in the assay on M14 melanoma; 29.5 µM with HCT-116 colon; 30.4 µM in the assay on LOX IMVI melanoma. In addition, the TGI is 39 µM with HCT-15 colon, 31.5 µM with SR leukemia, 38.1 µM in the assay with PC-3 prostate and 29.8 µM with SK-MEL-5 melanoma.

(Values after PubChem BioAssay (NCI).)
